Reference: patent publication US4985447A, “Certain benzoquinones, naphthoquinones and derivatives thereof which exhibit thromboxane A2 synthetase inhibition or receptor antagonism and the like” (Takeda Chemical Industries, Ltd., priority 1986, dated 1991)
Several values for one entry are separate records, joined by “and”; a condition that tells them apart may be missing. Equal values may be shown once.

What was measured:
[1] = Proteinuria improving effect in rat with adriamycin-induced nephrosis; assay type: in vivo, rat (Sprague-Dawley)
Procedure: Procedure: The experiment was carried out with Sprague-Dawley rat (male, 5 weeks old) according to the method of T. Bertani et al.[(Laboratory Invest.4, 16, (1982)]. Adriamycin was given intravenously at the dose of 7.5 mg/kg and two weeks later urine was collected for 24 hours after water was loaded orally at 10 ml/kg. Total urinary protein and albumin excreted in the urine were determined; rats of which total urinary protein was 20 mg/100g/24 hours or more were chosen for the experiment. The control group received water (vehicle) alone at 10 ml/kg/day, and the Compound No.18 group received the Compound at the dose of 50 mg/kg/day (10 ml/kg, water) once a day for 2 weeks. After 1 week or 2 weeks of treatment with the drug, 24 hour-urine was collected to determine total urinary protein and albumin. Two weeks later blood was taken from the thoracic aorta of the rat under pentobarbital anesthesia (50 mg/kg, intraperitoneal injection) to determine plasma cholesterol level.

[2] = Improving effect on glomerulonephritis in rat; assay type: in vivo, rat (Sprague-Dawley); conditions: for total urinary protein / urinary albumin: 50 mg/kg/day, p.o.
Procedure: Procedure: Nephritic rat was prepared according to the method of Matsunaga et al.[Folia pharmacol. japon. 78, 491,(1981)]using Sprague-Dawley rat (male, 5 weeks old). That is, the rat was immunized preliminarily by subcutaneous injection of a mixture of 3 mg of rabbit serum albumin (RSA) and an equal volume of Freund's complete adjuvant, and from two weeks after that RSA was given intravenously at the dose of 1 mg/rat three times a week for 8 weeks. Then 24 hour-urine was collected to determine total urinary protein and urinary albumin. Rats of which total urinary protein was 20 mg/100g/24hr or more were chosen for the experiment. The control group received water (vehicle) alone at 10 ml/kg/day, and the Compound No.18 group received the Compound at the dose of 50 mg/kg/day (10 ml/kg, water) once a day for 2 weeks. After 1 week and 2 weeks of treatment, 24 hour-urine was collected to determine total urinary protein and urinary albumin.

[3] = Toxicological study in the rat; assay type: in vivo, rat (male Wistar); parameters: key to Spleen: Widening of red pulp / Spleen: Congestion (dilatation of sinus) / Spleen: Extramedullary hematopoiesis / Spleen: Atrophy of white pulp / Liver: Parenchymal cell alteration / Kidney: Dilatation of pelvis / Heart: Cardiac cell alteration / Lung: Alteration / Bone marrow: Proliferation of erythroblast: -: negative; +: mild; ++: moderate; +++: severe; conditions: for Adrenals weight / Body weight (B.V.) / Brains weight / Gonads weight / Heart weight / Hypophy. weight / Kidney weight / Liver weight / Lung weight / Spleen weight / Thymus weight / Thyroid weight / Bone marrow: Proliferation of erythroblast / Heart: Cardiac cell alteration / Kidney: Dilatation of pelvis / Liver: Parenchymal cell alteration / Lung: Alteration / Spleen: Atrophy of white pulp / Spleen: Congestion (dilatation of sinus) / Spleen: Extramedullary hematopoiesis / Spleen: Widening of red pulp: 2 weeks; for Adrenals weight / Body weight (B.V.) / Brains weight / Gonads weight / Heart weight / Hypophy. weight / Kidney weight / Liver weight / Lung weight / Spleen weight / Thymus weight / Thyroid weight: mean; for A/G ratio / AI.P / Albumin / Calcium / GOT / GPK / GPT / Glucose / Greatinine / LAP / LDH / Total bilirubin / Total cholesterol / Total protein / Urea nitrogen: mean ± S.D.
Procedure: Procedure: Five weeks old, male Wistar rats were used. The rats were given the Compound 18 orally once a day for 14 days at doses of 100 and 300 mg/kg/10 ml of water as a suspension with 5% gum arabic. Control rats were given vehicle (10 ml/kg of water) alone. After fasting a night following the final dose of a 2 week treatment, the rats were anesthetized with ethyl ether and the blood was collected into a heparinized syringe from the abdominal aorta and the plasma was separated for the examination of blood chemistry. Blood parameters such as total protein, glucose, calcium, urea nitrogen, creatinine, total cholesterol, total bilirubin, alkaline phosphatase (ALP), leucine aminopeptidase (LAP), lactate dehydrogenase (LDH), glutamic oxaloacetic transaminase (GOT), glutamic pyruvic transaminase (GPT), creatine phosphokinase (CPK), albumin and A/G ratio were analysed by use of auto-analyzer (Hitachi 716). The organs such as liver, kidney, heart, lung, spleen, adrenal glands, thymus, testris, brain and hypophysis were excised and weighed. Some organs (liver, kidney, heart, lung, spleen) were fixed in 10% neutral formalin solution for histological examinations. Bone marrow was fixed as well without weighing. These fixed organs were stained with Hematoxyline-Eosin for histological examinations.

[4] = 50 mg/kg/day, p.o., 1 week after
[5] = 50 mg/kg/day, p.o., 2 weeks after
[6] = 50 mg/kg/day, p.o., before treatment
[7] = 1 week after, *p<0.05 against pretreatment
[8] = 2 weeks after, *p<0.05 against pretreatment
[9] = 100 mg/kg/day, single rats No. 7-10
[10] = 300 mg/kg/day, single rats No. 11-15

For `CC1=C(C)C(=O)C(Cc2cccnc2)=C(C)C1=O` [Compound No. 18], the “effect on adriamycin-induced nephrosis (in words)” value ([1]; 50 mg/kg/day for 2 weeks) was “improves adriamycin-induced nephrosis”, the “total urinary protein versus pretreatment value (in words)” value ([1]; 50 mg/kg/day for 2 weeks) was “neither total urinary protein nor urinary albumin differed from the respective pretreatment values” and the “urinary albumin versus pretreatment value (in words)” value ([1]; 50 mg/kg/day for 2 weeks) was “neither total urinary protein nor urinary albumin differed from the respective pretreatment values”. The total urinary protein [1, 4] was 55 ± 17 mg/100 g/24 hr, the urinary albumin [1, 4] was 25 ± 10 and the total urinary protein [1, 5] was 59 ± 9 mg/100 g/24 hr. The urinary albumin [1, 5] was 31 ± 7, the serum cholesterol ([1]; 50 mg/kg/day, p.o., 2 weeks after, #p<0.05 against control) was 49 ± 4 mg/dL and the total urinary protein [1, 6] was 76 ± 28 mg/100 g/24 hr. For the same compound, the urinary albumin [1, 6] was 28 ± 14, the “serum cholesterol level (in words)” value ([1]; after 2 weeks, 50 mg/kg/day) was “decreased remarkably” and the “effect on nephritis (in words)” value ([2]; 50 mg/kg/day for 2 weeks) was “improves nephritis”. For the same compound, the “total urinary protein compared with control group (in words)” value ([2]; 50 mg/kg/day for 2 weeks) was “decreased total urinary protein”, the “urinary albumin compared with control group (in words)” value ([2]; 50 mg/kg/day for 2 weeks) was “decreased total urinary protein and urinary albumin” and the total urinary protein [2, 7] was 37 ± 8 mg/100 g/24 hr. For the same compound, the urinary albumin [2, 7] was 17 ± 5, the total urinary protein [2, 8] was 48 ± 16 mg/100 g/24 hr and the urinary albumin [2, 8] was 24 + 12. For the same compound, the total urinary protein ([2]; before treatment) was 75 ± 28 mg/100 g/24 hr, the urinary albumin ([2]; before treatment) was 45 ± 21 and the Adrenals weight ([3]; 100 mg/kg orally) was 47.7 mg. The “Body weight (B.V.)” value ([3]; 100 mg/kg orally) was 170.3 g, the Brains weight ([3]; 100 mg/kg orally) was 1.747 g and the Gonads weight ([3]; 100 mg/kg orally) was 1.906 g. For the same compound, the Heart weight ([3]; 100 mg/kg orally) was 0.709 g, the Hypophy. weight ([3]; 100 mg/kg orally) was 8.3 mg and the Kidney weight ([3]; 100 mg/kg orally) was 1.579 g. The Liver weight ([3]; 100 mg/kg orally) was 6.347 g, the Lung weight ([3]; 100 mg/kg orally) was 0.872 g and the Spleen weight ([3]; 100 mg/kg orally) was 0.673 g. The Thymus weight ([3]; 100 mg/kg orally) was 0.45 g, the Thyroid weight ([3]; 100 mg/kg orally) was 11.4 mg and the “Bone marrow: Proliferation of erythroblast” value [3, 9] was “-”. The “Heart: Cardiac cell alteration” value [3, 9] was “-”, the “Kidney: Dilatation of pelvis” value [3, 9] was “- (2×) and ++ and +” and the “Liver: Parenchymal cell alteration” value [3, 9] was “-”. For the same compound, the “Lung: Alteration” value [3, 9] was “-”, the “Spleen: Atrophy of white pulp” value [3, 9] was “-” and the “Spleen: Congestion (dilatation of sinus)” value [3, 9] was “-”. For the same compound, the “Spleen: Extramedullary hematopoiesis” value [3, 9] was “+”, the “Spleen: Widening of red pulp” value [3, 9] was “-” and the A/G ratio ([3]; 100 mg/kg/day) was 1.65 ± 0.05. For the same compound, the AI.P ([3]; 100 mg/kg/day) was 194 ± 32 U/I, the Albumin ([3]; 100 mg/kg/day) was 3.43 ± 0.05 g % and the Calcium ([3]; 100 mg/kg/day) was 9.84 ± 0.41 mg %. For the same compound, the GOT ([3]; 100 mg/kg/day) was 57 ± 6 U/I, the GPK ([3]; 100 mg/kg/day) was 44 ± 5 U/I and the GPT ([3]; 100 mg/kg/day) was 13 ± 1 U/I. It also gave a Glucose ([3]; 100 mg/kg/day) of 104 ± 11 mg %, a Greatinine ([3]; 100 mg/kg/day) of 0.5 ± 0.0 mg % and an LAP ([3]; 100 mg/kg/day) of 20 ± 1 U/I. For the same compound, the LDH ([3]; 100 mg/kg/day) was 86 ± 22 U/I, the Total bilirubin ([3]; 100 mg/kg/day) was 0.27 ± 0.03 mg % and the Total cholesterol ([3]; 100 mg/kg/day) was 47 ± 7 mg %. The Total protein ([3]; 100 mg/kg/day) was 5.51 ± 0.11 g %, the Urea nitrogen ([3]; 100 mg/kg/day) was 15.8 ± 0.7 mg % and the “body weight (in words)” value ([3]; 300 mg/kg) was “tended to have a lower body weight, but the change was not significant”. The “splenomegaly (in words)” value ([3]; 300 mg/kg) was “one of 5 rats showed a mild splenomegaly”, the Adrenals weight ([3]; 300 mg/kg orally) was 43.0 mg and the “Body weight (B.V.)” value ([3]; 300 mg/kg orally) was 162.0 g. The Brains weight ([3]; 300 mg/kg orally) was 1.714 g, the Gonads weight ([3]; 300 mg/kg orally) was 1.873 g and the Heart weight ([3]; 300 mg/kg orally) was 0.913 g. It also gave a Hypophy. weight ([3]; 300 mg/kg orally) of 8.1 mg, a Kidney weight ([3]; 300 mg/kg orally) of 1.508 g and a Liver weight ([3]; 300 mg/kg orally) of 6.264 g. It also gave a Lung weight ([3]; 300 mg/kg orally) of 0.929 g, a Spleen weight ([3]; 300 mg/kg orally) of 0.703 g and a Thymus weight ([3]; 300 mg/kg orally) of 0.447 g. The Thyroid weight ([3]; 300 mg/kg orally) was 12.0 mg, the “extramedullary hematopoiesis (in words)” value ([3]; 300 mg/kg, one of 5 rats) was “increased extramedullary hematopoiesis” and the “Bone marrow: Proliferation of erythroblast” value [3, 10] was “-”. For the same compound, the “Heart: Cardiac cell alteration” value [3, 10] was “-”, the “Kidney: Dilatation of pelvis” value [3, 10] was “- (4×) and +” and the “Liver: Parenchymal cell alteration” value [3, 10] was “-”. For the same compound, the “Lung: Alteration” value [3, 10] was “-”, the “Spleen: Atrophy of white pulp” value [3, 10] was “- (4×) and +” and the “Spleen: Congestion (dilatation of sinus)” value [3, 10] was “-”. The “Spleen: Extramedullary hematopoiesis” value [3, 10] was “+ (4×) and ++”, the “Spleen: Widening of red pulp” value [3, 10] was “- (3×) and + (2×)” and the A/G ratio ([3]; 300 mg/kg/day) was 1.73. The AI.P ([3]; 300 mg/kg/day) was 149 U/I, the Albumin ([3]; 300 mg/kg/day) was 3.47 ± 0.13 g % and the Calcium ([3]; 300 mg/kg/day) was 9.70 ± 0.18 mg %. The GOT ([3]; 300 mg/kg/day) was 64 ± 9 U/I, the GPK ([3]; 300 mg/kg/day) was 52 ± 9 U/I and the GPT ([3]; 300 mg/kg/day) was 14 ± 1 U/I. It also gave a Glucose ([3]; 300 mg/kg/day) of 97 ± 11 mg %, a Greatinine ([3]; 300 mg/kg/day) of 0.4 ± 0.1 mg % and an LAP ([3]; 300 mg/kg/day) of 19 ± 1 U/I. The LDH ([3]; 300 mg/kg/day) was 99 ± 18 U/I, the Total bilirubin ([3]; 300 mg/kg/day) was 0.28 ± 0.02 mg % and the Total cholesterol ([3]; 300 mg/kg/day) was 41 ± 14 mg %. For the same compound, the Total protein ([3]; 300 mg/kg/day) was 5.48 ± 0.20 g %, the Urea nitrogen ([3]; 300 mg/kg/day) was 14.5 ± 0.6 mg % and the “blood chemistry (in words)” value ([3]; 100 and 300 mg/kg) was “no changes in the blood chemistry”. The “organ weight (in words)” value ([3]; 100 and 300 mg/kg) was “no significant changes in any organ weight” and the “histology of the other organs (in words)” value ([3]; after 2 weeks) was “The other organs showed no changes”.
